Measured values: article PMC4544722 (Drug Design, Development and Therapy, 2015)

Assay: everted gut sac model in vitro
Conditions: jejunum, ECH 0.09 mg/mL; verapamil 0.2 mg/mL, borneol 0.1 mg/mL, pennyroyal 0.1 mL/mL, clove oil 0.1 mL/mL

In the case of `CC1(C)C2CCC1(C)C(O)C2` (stereo not shown) [borneol], the “effect on ECH absorption parameters F and Papp versus control” value is reported as “neither borneol nor pennyroyal had significant absorption enhancing effect”.
